tested on: Vibrio harveyi MM32, AI-2 induced luminescence, 5 h; assay: AI-2 driven bioluminescence decrease, LuxPQ pathway – strain MM32, luminescence, dry powder, mechanism study for V. harveyi quorum sensing inhibitors, dose response (AID 493118)

Structure (SMILES) | AC50 [µM]
COc1cc(NC(=O)CN2C(=O)NC(c3ccccc3)(c3ccccc3)C2=O)cc(OC)c1 | 0.615
CCc1ccc(S(=O)(=O)Nc2ccc(Br)cn2)cc1 | 1.4
C=Cn1c(C(=O)O)ccc1-c1ccc(CC)cc1 | 2.14
Cc1cccc(NS(=O)(=O)c2ccc(Oc3ccccc3)cc2)n1 | 0.898
Cn1cnc(S(=O)(=O)Nc2ccc(OC(F)(F)F)cc2)c1 | 1.95
O=C1C=C/C(=C/Br)O1 | 4.33
